We go through 4 compounds from patent US6946467B2, “Serine protease inhibitors” (Eli Lilly and Company, priority 2000, dated 2005).

As usually defined, the melting point is the temperature of the solid-liquid transition.

Structures can show the parent of a compound that is named as a salt.

Turning to `Cl.O=C(N[C@@H](C(=O)N1CCN(CCc2nccs2)CC1)c1ccccc1)c1ccc2cc[nH]c2c1`, the melting point is 135 to 142 °C (dec.). The figure for `Cl.N#Cc1cc(CCN2CCN(C(=O)[C@H](NC(=O)c3ccc4cc[nH]c4c3)c3ccccc3)CC2)ccn1` is 156 to 169 °C; for `COc1ccc(C(=O)N[C@@H](C(=O)N2CCN(CCC3CCCC3)CC2)c2ccccc2)cc1` (as salt: hydrochloride) [Example 30, 1-(4-Methoxybenzoyl-D-phenylglycinyl)-4-(2-cyclopentylethyl)piperazine] it is 190 to 192 °C.

`O=C(N[C@@H](C(=O)N1CCN(CCc2ccncc2F)CC1)c1ccccc1)c1ccc2cc[nH]c2c1` [Example 58a, 1-[Indole-6-carbonyl-D-phenylglycinyl]-4-[2-(3-fluoropyridin-4-yl)ethyl]piperazine]: the melting point was 135 to 145 °C (dec.).
